Experimental findings from US20100173983A1, “METHOD FOR INDUCING AUTOPHAGY” (priority 2007, published 2010) are described below.

What all share (format): cell-based, Human
The subject of one test is R182 cells. The experiment in a line: Phase-contrast microscopy, vacuole formation. To be noted: 5 μg/ml over 4 hr and 8 hr. On the procedure:
FIG. 6. Phase-contrast images of R182 cells treated with vehicle (NT) or 5 μg/ml Cpd 1 over 4 hr and 8 hr (A).
R182 cells treated with Cpd 1 were observed microscopically to determine if morphological and structural alterations to cellular integrity took place. Cells treated with Cpd 1 were hyper-vacuolated (see FIG. 6) and the plasma membrane appeared to bleb or form folds. […] These morphological changes observed in Cpd 1 treated cells are considered the hall mark of autophagy with the increased vacuoles formation thought to result in autophagosomes which eventually fuse with lysosomes to form autolysosomes. These structures contain catabolic hydrolases which are released into the cytoplasm when the lysosomal membrane becomes compromised.

The subject of test [1] is CP70 (cell line), R179, R182, R585 (primary ovarian cancer explants). Description: Cell viability, CellTiter 96 Aqueous One Solution Cell Proliferation Assay, ovarian cancer cells. To be noted: concentrations up to 10 μg/ml, 24 hr exposure. On the procedure: FIG. 1. Comparative cytotoxicity of dehydroequol and Compound I as described herein (Cpd 1) against normal and ovarian cancer cells: CP70 (cell line), R179, R182, R585 (primary ovarian cancer explants) and OSE (normal ovarian surface epithelial cells). […] Both compounds were tested at concentrations up to 10 μg/ml and exposed to cells for 24 hr.
Human EOC cell lines A2780, CP70, and OSE were propagated in RPMI plus 10% fetal bovine serum (FBS) (Gemini Bio-Products, Woodland, Calif.) at 37° C. in a 5% CO2 atmosphere. Primary EOC cells (R179, R182, R585) were isolated from malignant ovarian ascites and cultured as previously described (Kamsteeg et al., 2003). Dehydroequol and Compound 1 (Cpd 1) were obtained from Novogen (Australia). All other reagents were purchased from Sigma Chemical (St. Louis, Mo.). The pan caspase inhibitor Z-VAD-FMK was obtained from R&D Systems (Minneapolis, Minn.).
Cell viability was evaluated using the CellTiter 96 Aqueous One Solution Cell Proliferation Assay (Promega, Madison, Wis.) according to the manufacturer's instructions. The values from the treated cells were compared with the values generated from the untreated cells and reported as percent viability. Each experiment was performed in triplicate.

The next test has as its system cytochrome c. Description: Western blot of R-182 cytoplasmic extracts, cytochrome c. As to conditions: R-182 cells, 5 μg/ml over 8 hr. On the procedure: FIG. 9. Cpd 1-induced cell death involves cytochrome c translocation to the cytoplasm. R-182 cells treated with Cpd 1 (5 μg/ml) over 8 hr and the cytoplasmic and mitochondrial fractions were separated. […] Cox-4 was included to show the integrity of the mitochondrial preparation.
After treatment with Cpd 1, protein was extracted from cells and measured as previously described (Kamsteeg et al., 2003). For separation of the cytoplasmic and mitochondrial fractions, cell pellets were processed using the ApoAlert Cell Fractionation kit (Promega) according to the manufacturer's instructions. 20 μg protein was denatured in sample buffer (2.5% sodium dodecyl sulfate [SDS], 10% glycerol, 5% β-mercapto-ethanol, 0.15 M Tris, pH 6.8, and 0.01% bromophenol blue) and subjected to 12% SDS polyacrylamide gel electrophoresis (SDS-PAGE) as previously described (Kamsteeg et al., 2003). The following antibodies and concentrations were used: mouse anti-Bax (BD Biosciences, 1:500), rabbit anti-actin (Sigma, 1:10,000), rabbit anti-cytochrome c (BD Biosciences, 1:1,000), mouse anti-Cox-4 (BD Biosciences, 1:500), rabbit anti-beclin 1 (Santa Cruz Biotechnology, 1:600), mouse anti LC3 (Nanotools, 1:500). […] Proteins were observed using enhanced chemiluminescence (Pierce, Rockford, Ill.).
Cpd 1-induced cell death also involves cytochrome c translocation to the cytoplasm (FIG. 9). […]

Test [2] relates to CP70 ovarian cancer cells. The experiment in a line: DNA fragmentation, PI/Hoechst FACS analysis. To be noted: 10 μM for 24 hr; 1.4% in the absence of Cpd 1. On the procedure: FIG. 7. Cpd 1 induces DNA degradation in CP70 cells. A, No treatment control. B, Cpd 1-treated cells. CP70 ovarian cancer cells were incubated with 10 μg/ml Cpd 1 for […] and fixed. Cells were co-stained with propidium iodide and Hoechst A and incidence of PI labelled cells indicative of DNA degradation in quandrant 2 was assessed by FACS analysis.
The inventors then determined whether treatment with Cpd 1 induced DNA fragmentation. Ovarian cancer cells were treated with Cpd 1 (10 μM) for 24 hr and gently trypsinised. Trypsinized cells were combined with non-adherent cells, rinsed once in medium containing serum and then resuspended at a concentration of 10^7 cells/ml in PBS. Cells were then fixed by adding 0.5 ml of cell suspension to 4.5 ml 70% ice-cold ethanol. After 2 h on ice, cells were pelleted and the ethanol was thoroughly decanted. The cell pellet was rinsed in 5 ml PBS, centrifuged, resuspended in 1 ml of PBS containing 0.1% Triton X-100, 0.2 mg/ml DNase-free RNase A, and 20 μg/ml propidium iodide (PI) and 2 μg/ml hoechst-A and incubated at 37° C. for 15 min before FACS analysis. Cells were analyzed using Becton Dickinson Cell Quest FACStation software (version 3.0.1) operating a Becton Dickinson FACSCalibur FACS machine. Gating was used to remove debris and doublets before collection. Results were quantitated using ModFit LT (1999; Topsham, Me.: Verity Software House, Inc.). […]

A further test has as its system Beclin 1 / Bcl-2. Description: Beclin 1 immunoprecipitation probed with anti-Bcl-2. To be noted: mitochondrial preparations of Cpd 1 treated cells. An excerpt: (§1) FIG. 8. Molecular evidence of autophagic cell death in R-182 ovarian cancer cells induced by Cpd 1. […] B, Beclin 1 binds to Bcl-2. Immunoprecipitation study using mitochondrial preparations of cells pre-treated with Cpd 1 as stated in A, and subjected to beclin 1 immunoprecitation. Immunoprecipitated fractions were washed in PBS, subjected to SDS-PAGE, blotted and then probed with a mouse anti-Bcl-2 antibody. Actin and Topo-1 were used as loading control. C, Depolarized cells resulting from over-expression of Bax and Beclin 1 following administration of Cpd 1. Cells were treated with Cpd 1 as described in A, pelleted and washed in HBSS and the cell pellet resuspended in the reaction buffer for JC-1 (Biovision, Inc. MitoCapture™ K250-100). HBSS-washed cells were analysed by flow cytometry (λexcit=488 nm and (λemit=530 nm for green fluorescence (depolarized) or 590 nm for red fluorescence (polarized). 10,000 gated events were measured with a BD FACScalibur. Results were expressed as mean±standard deviation (n=3).
(§2) To measure membrane depolarization cells were treated with Cpd 1 as described above, pelleted and washed in HBSS and the cell pellet resuspended in the reaction buffer for JC-1 (Biovision, Inc. MitoCapture™ K250-100). HBSS-washed cell pellets were resuspended in 1 mL aliquots of the Mitocapture reagent buffer with 1 μL of JC-1 solution in DMSO (Biovision).

Another test relates to R-182 cells. The experiment in a line: Mitochondrial membrane depolarization, JC-1 flow cytometry. As to conditions: cells treated 5 μg/ml.
From the text: as §1, §2

SMILES strings stand for the structures.

Turning to `COc1ccc([C@H]2c3ccc(O)c(C)c3OC[C@H]2c2ccc(O)cc2)cc1` (stereo in doubt) [Cpd 1, 3-(4-hydroxyphenyl)-4-(4-methoxyphenyl)-8-methylchroman-7-ol], the vacuole formation result with R182 cells was “vacuole formation is clearly evident”. In addition, the “cell viability of ovarian cancer cells” value in test [1] is “decreased cell viability of all primary ovarian cancer cells”. In the test on cytochrome c, the “occurrence of cytochrome c in the cytoplasm” value is “increased over time”. In addition, in test [2], the DNA fragmentation is 95%. Further, in the test with Beclin 1 / Bcl-2, the “Beclin and Bcl-2 co-precipitation” value was “co-precipitate at higher concentrations compared to control”. In addition, the mitochondrial membrane depolarization result with R-182 cells is on record as “results in mitochondrial membrane depolarization”.
